This note sets out measurements from patent US20170320870A1 (Medical Research Council Technology, priority 2009, published 2017).

Counter-ions that a name gives are not always drawn.

T1 sequence (Q5S007 970-2527): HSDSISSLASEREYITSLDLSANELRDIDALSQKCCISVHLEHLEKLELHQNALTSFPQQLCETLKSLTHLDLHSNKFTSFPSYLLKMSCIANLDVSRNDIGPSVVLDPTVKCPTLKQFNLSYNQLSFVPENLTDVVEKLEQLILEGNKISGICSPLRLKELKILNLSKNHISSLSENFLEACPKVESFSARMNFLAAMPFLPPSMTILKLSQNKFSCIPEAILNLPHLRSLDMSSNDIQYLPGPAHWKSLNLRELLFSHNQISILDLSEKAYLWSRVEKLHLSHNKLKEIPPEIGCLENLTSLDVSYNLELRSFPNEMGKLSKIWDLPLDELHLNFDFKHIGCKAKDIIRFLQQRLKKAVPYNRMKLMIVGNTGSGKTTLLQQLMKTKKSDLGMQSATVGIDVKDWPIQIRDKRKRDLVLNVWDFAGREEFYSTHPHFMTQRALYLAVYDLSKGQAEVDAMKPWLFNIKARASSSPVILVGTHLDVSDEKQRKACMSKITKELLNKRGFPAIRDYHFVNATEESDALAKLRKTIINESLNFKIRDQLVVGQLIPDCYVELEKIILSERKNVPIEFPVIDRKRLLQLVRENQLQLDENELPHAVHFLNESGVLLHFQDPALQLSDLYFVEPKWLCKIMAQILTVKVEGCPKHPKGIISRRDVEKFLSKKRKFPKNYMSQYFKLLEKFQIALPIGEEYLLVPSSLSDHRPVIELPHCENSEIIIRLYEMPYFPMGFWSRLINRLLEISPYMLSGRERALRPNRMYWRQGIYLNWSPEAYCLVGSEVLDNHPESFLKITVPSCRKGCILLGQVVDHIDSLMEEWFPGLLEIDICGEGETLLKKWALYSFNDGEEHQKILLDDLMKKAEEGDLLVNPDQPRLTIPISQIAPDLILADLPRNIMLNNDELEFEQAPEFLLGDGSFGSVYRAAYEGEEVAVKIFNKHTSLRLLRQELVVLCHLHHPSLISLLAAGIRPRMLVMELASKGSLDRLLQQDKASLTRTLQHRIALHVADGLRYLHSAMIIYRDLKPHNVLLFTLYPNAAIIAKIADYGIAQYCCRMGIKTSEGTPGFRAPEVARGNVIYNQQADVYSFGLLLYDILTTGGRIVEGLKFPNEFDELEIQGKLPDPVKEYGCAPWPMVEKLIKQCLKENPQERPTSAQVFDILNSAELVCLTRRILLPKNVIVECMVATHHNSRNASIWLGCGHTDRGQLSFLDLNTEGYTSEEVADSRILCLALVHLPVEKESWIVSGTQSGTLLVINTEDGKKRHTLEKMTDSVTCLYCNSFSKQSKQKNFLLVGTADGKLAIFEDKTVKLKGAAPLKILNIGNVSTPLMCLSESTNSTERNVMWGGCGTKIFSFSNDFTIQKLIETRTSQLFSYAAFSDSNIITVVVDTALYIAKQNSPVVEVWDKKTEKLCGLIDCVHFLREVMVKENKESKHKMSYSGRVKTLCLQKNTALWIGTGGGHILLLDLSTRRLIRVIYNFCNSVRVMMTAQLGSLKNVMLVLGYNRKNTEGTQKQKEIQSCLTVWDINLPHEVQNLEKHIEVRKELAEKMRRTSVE

This assay concerns the target T1, LRRK2 wild type (recombinant human, catalytic domain amino acids 970-2527, GST-tagged) (Homo sapiens, UniProt Q5S007).
T1 construct: The wild type used was recombinant human, catalytic domain (amino acids 970-2527) GST-tagged, expressed in insect cells; GST; purchased Invitrogen Corporation PV4873; host or cells: insect cells
The experiment in a line: LRRK2 wild type protein kinase assay ([γ-33P] ATP, peptide substrate […]), IC50. The class given is biochemical. The settings on record: LRRK2 (variant not given); read-out: Potency score, LRRK2 IC50. The essentials:
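Insect-cell-expressed enzyme (~5 nM), no activation, incubated 180 min at ~21 °C in 50 mM Tris-HCl pH 7.5, 0.1 mM EGTA, 1 mM DTT, 10 mM MgCl2 with 100 μM peptide substrate and [γ-33P]ATP. Reaction stopped with orthophosphoric acid, captured on P81 filters and counted; IC50 from 10 concentrations in duplicate.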
In general, IC50 refers to the concentration that gives 50% inhibition. Consider `Cc1n[nH]c2ccnc(Nc3ccc(-n4cncn4)cc3)c12` [Example 96, (3-Methyl-1H-pyrazolo[4,3-c]pyridin-4-yl)-(4-1,2,4-triazol-1-yl-phenyl)-amine hydrochloride salt], for which the IC50 lay in the range of 0.1 to 1 µM.

As for `Cc1n[nH]c2ccnc(OCC(F)(F)F)c12` [Example 279, 3-Methyl-4-(2,2,2-trifluoro-ethoxy)-1H-pyrazolo [4,3-c]pyridine], the IC50 fell in the range of 0.1 to 1 µM.

For `CN1CCC(C(=O)Nc2cccc(CCc3n[nH]c4ccnc(NC5CCCCC5)c34)c2)CC1` [Example 224, 1-Methyl-piperidine-4-carboxylic acid {3-[2-(4-cyclohexylamino-1H-pyrazolo[4,3-c]pyridin-3-yl)-ethyl]-phenyl}-amide], the IC50 fell in the range of 0.1 to 1 µM.

On to `Cc1n[nH]c2ccnc(NCCc3ccccc3F)c12` [Example 332, [2-(2-Fluoro-phenyl)-ethyl]-(3-methyl-1H-pyrazolo[4,3-c]pyridin-4-yl)-amine], for which the IC50 was 0.1 to 1 µM.

For `CN(CCc1ccccc1)C(=O)CCc1n[nH]c2ccnc(NC3CCCCC3)c12` [Example 189, 3-(4-Cyclohexylamino-1H-pyrazolo[4,3-c]pyridin-3-yl)-N-methyl-N-phenethyl-propionamide], the IC50 fell in the range of 1 to 10 µM.

For the molecule `CC(=O)Nc1cccc(-c2n[nH]c3ccnc(NC4CCCCC4)c23)c1` [Example 137, N-[3-(4-Cyclohexylamino-1H-pyrazolo[4,3-c]pyridin-3-yl)-phenyl]-acetamide], the IC50 fell in the range of 1 to 10 µM.

`CCOc1cccc(Nc2nccc3[nH]nc(C)c23)c1` [Example 71, (3-Ethoxy-phenyl)-(3-methyl-1H-pyrazolo[4,3-c]pyridin-4-yl)-amine]: the IC50 was in the range of 1 to 10 µM.

On to `Cc1n[nH]c2ccnc(O[C@@H]3C[C@@H]4CC[C@H]3C4)c12` (racemic) [Example 296], for which the IC50 is less than 0.1 µM.

As to `O=C(CCc1n[nH]c2ccnc(NC3CCCCC3)c12)N1CCC(O)(c2ccccc2)CC1` [Example 176, 3-(4-Cyclohexylamino-1H-pyrazolo[4,3-c]pyridin-3-yl)-1-(4-hydroxy-4-phenyl-piperidin-1-yl)-propan-1-one], the IC50 is 0.1 to 1 µM.

`Cn1cnc(C(=O)Nc2ccc(CCc3n[nH]c4ccnc(NC5CCCCC5)c34)cc2)c1` [Example 269, 1-Methyl-1H-imidazole-4-carboxylic acid {4-[2-(4-cyclohexylamino-1H-pyrazolo[4,3-c]pyridin-3-yl)-ethyl]-phenyl}-amide]: the IC50 was less than 0.1 µM.

With `Cc1n[nH]c2ccnc(Nc3ccccn3)c12` [Example 94, (3-Methyl-1H-pyrazolo[4,3-c]pyridin-4-yl)-pyridin-2-yl-amine], the IC50 lay in the range of 1 to 10 µM.

`Cc1n[nH]c2ccnc(Nc3ccc(F)cc3)c12` [Example 311, (4-Fluoro-phenyl)-(3-methyl-1H-pyrazolo[4,3-c]pyridin-4-yl)-amine]: the IC50 was in the range of 0.1 to 1 µM.

Take `Cc1n[nH]c2ccnc(NC3CCCC3)c12` [Example 21, Cyclopentyl-(3-methyl-1H-pyrazolo[4,3-c]pyridin-4-yl)-amine]: the half-inhibitory concentration (IC50) fell in the range of 0.1 to 1 µM.

In the case of `Cc1n[nH]c2ccnc(Nc3ccn(C)n3)c12` [Example 61, (3-Methyl-1H-pyrazolo[4,3-c]pyridin-4-yl)-(1-methyl-1H-pyrazol-3-yl)-amine], the IC50 fell in the range of 0.1 to 1 µM.

As for `Cc1n[nH]c2ccnc(NCCCN3CCCC3=O)c12` [Example 324, 1-[3-(3-Methyl-1H-pyrazolo[4,3-c]pyridin-4-ylamino)-propyl]-pyrrolidin-2-one], the IC50 is 1 to 10 µM.

In the case of `CN(C)C1CCN(C(=O)CCc2n[nH]c3ccnc(NC4CCCCC4)c23)CC1` [Example 174, 3-(4-Cyclohexylamino-1H-pyrazolo[4,3-c]pyridin-3-yl)-1-(4-dimethylamino-piperidin-1-yl)-propan-1-one], the IC50 is 1 to 10 µM.
